| SMILES | melting point |
| --- | --- |
| Cc1cc(C=CC(=O)O)c(Cl)nc1C | 150 to 158 °C |
| O=C(O)c1c[nH]c(=S)n1C1CCc2c(F)cc(F)cc2C1 (stereo not drawn) | 250 to 252 °C |
| Cc1cccc(Oc2c(-c3ccc(S(C)(=O)=O)cc3)oc(C)cc2=O)c1 | 162 °C |
| COc1ccc(CC2NCCCC2C(C)O)cc1 (stereo not drawn) | > 300 °C |
| CCCC(=O)c1cc(C(=O)O)c(N)cc1C | 184 to 186 °C |
| CN(CC(=O)C(Cc1ccccc1)NC(=O)c1ccccc1)C(=O)N1CCCC1C(=O)O (stereo not drawn) | 60 to 82 °C |
| CNc1nc(-c2ccccc2)c(-c2ccc(=O)n(C(C)C)n2)s1 | 234 to 236 °C |
| N#Cc1cccc(-c2ccc3c(c2)C2(CCCCC2)C(=NO)N3)c1 | 198 to 200 °C |
| N=C(N)c1ccc(-c2ccc(N3CCN(CCC(=O)O)S3(=O)=O)cc2)cc1 | > 260 °C |
| COc1cc2c(cc1OC)CN(CCCSc1ccc(NC(=O)c3cccc4c(=O)c5ccccc5[nH]c34)cc1)CC2 | 182 °C |
| O=C1CC(c2ccccc2)(c2ccncc2)Oc2ccccc21 (stereo not drawn) | 123 to 130 °C |
| CCOC(=O)[C@H](CCc1ccccc1)NC(=O)C1(NC(=O)[C@@H](SC(C)=O)C2CCOCC2)CCCC1 | 107 to 111 °C |
| COc1ccc2nccc(NC(=O)N3CCN(CCc4ccc5c(c4)NC(=O)CS5)CC3)c2n1 | 248 to 250 °C |
| C=CCN(C(C)=O)c1cccc(-c2ccc3nncn3n2)c1 | 139 to 142 °C |
| CCN1CCN(Cc2nc3sc4c(c3c(=O)n2-c2ccccc2Cl)CCCC4)CC1 | 140 to 142 °C |
| Cc1cc2n(n1)-c1ccc(Cl)cc1C(c1ccccc1)NC2=O (stereo not drawn) | 258 to 261 °C |
| CC1(C)NC(=O)N(CCC(COc2ccc(-c3ccc(C#N)cc3)cc2)N(O)C=O)C1=O (stereo not drawn) | 202 to 204 °C |
| CN(C)c1ccc2[nH]c(-c3cc(NC(=O)c4cccc(OCCCCCCC(=O)NO)c4)ccc3Cl)nc2c1 | 140 to 142 °C |
| Cc1cccc(C)c1N1CN(C)CN(C)C1=S | 121 to 123 °C |
| COc1ccc(CCNCC(O)c2ccccc2)cc1OC (stereo not drawn) | 92 to 93 °C |

| SMILES | melting point |
| --- | --- |
| CC(=O)OCC1OC(CCOS(C)(=O)=S)C(OC(C)=O)C(OC(C)=O)C1OC(C)=O (stereo not drawn) | 115 to 116 °C |
| N#CCCCN1CCC(Nc2nc3ccccc3n2Cc2ccc(F)cc2)CC1 | 130 °C |
| COc1ccc2[nH]c(S(=O)Cc3cc(N4CCOCC4)c(F)cn3)nc2c1 (stereo not drawn) | 109 to 111 °C |
| CNC(=S)NS(=O)(=O)c1cc2c(cc1OC)OC(C)(C)C(NC(=O)c1cc(Cl)ccc1OC)C2 (stereo not drawn) | 234 to 235 °C |
| COc1cc2c(c(OC)c1)C(Cc1ccc(-c3ccccc3OC)cc1)N(C(=O)OC(C)(C)C)CC2 (stereo not drawn) | 126 to 128 °C |
| CCCCOc1cc(C(=O)O)cc(S(N)(=O)=O)c1Cc1ccccc1 | 228 to 229 °C |
| CCCCCCC(C)(C)c1cc(OCc2ccccc2)c(C2=C(C(C)(C)C(N)=O)CCC(C)C2)c(OCc2ccccc2)c1 (stereo not drawn) | 113 to 114 °C |
| O=C(/C=C/c1cccc(NC(=O)/C=C/c2ccc3c(c2)OCO3)c1)NO | 128 °C |
| CNCC(O)c1cccn1C (stereo not drawn) | 64 to 66 °C |
| S=C(NCCCN1CCCC1)NCCCN(Cc1ccc(Cl)c(Cl)c1)c1ccc(Br)cn1 | 122 to 124 °C |
| CCNC(=O)c1ccc(F)cc1 | 73.2 to 76.3 °C |
| NC(=O)c1ccc(C(F)(F)F)c(N)c1 | 147 to 149 °C |
| COc1cc(OC)c2c(=O)cc(Oc3ccccc3)oc2c1C1CCN(C)CC1O (stereo not drawn) | 238 to 239 °C |
| COc1cc2c(=O)c(S(C)=O)cn(C)c2cc1Cl (stereo not drawn) | 263 to 265 °C |
| CCOC(=O)C1=C(COCC(C)(O)c2ncc[nH]2)NC(C)=C(C(=O)OC)C1c1cccc(Cl)c1Cl (stereo not drawn) | 183 °C |
| CNC(=S)C1(c2cnc3ccccc3c2)CCCCC1=CC#N (stereo not drawn) | 108 to 111 °C |
| CC1(c2ccc([N+](=O)[O-])cc2)C(=O)Nc2cc(Cl)cc(Cl)c2C1=O (stereo not drawn) | 264 to 265 °C |
| COC(=O)c1coc2cc(Oc3cc(COCc4ccccc4)ncn3)ccc12 | 85 to 86 °C |
| COc1cc(C#N)ccc1C1=CC(C)(C)Oc2ccc(C#N)cc21 | 137 to 139 °C |
| COc1cccc(NC(=O)N2CCc3cc(S(=O)(=O)N4CCN(c5cccc(Cl)c5)CC4)ccc32)c1 | 199 to 200 °C |

Results, then the compound that gave them:

| melting point | SMILES |
| --- | --- |
| 134 °C | CCOC(=O)CON=c1c2nccc3cccc(c32)n2cccc12 |
| 192 to 194 °C | Cc1nn(-c2cccnc2)c2nc3cc(F)c(F)cc3c(Cl)c12 |
| 64 to 65.6 °C | COC(=O)CCCCCOc1ccc(NC(=O)CCCCCOCc2ccccc2)cc1 |
| 179 to 183 °C | CCc1cc(OCc2ccc(-c3ccccc3-c3nnn(C(c4ccccc4)(c4ccccc4)c4ccccc4)n3)cc2)c2nc(OC(C)C)c(Cl)cc2n1 |
| 139 to 144 °C | Cc1cc(N(C)CCO)cc(C)n1 |
| 155 to 157 °C | COc1ccc(N(CCCC(=O)O)C(=O)C(C)N(C(C)=O)c2ccc(OC)cc2)cc1 (stereo not drawn) |
| 149 to 151 °C | O=C(O)CCCC(=O)c1cc2c(=O)c3ccccc3ccc2s1 |
| 123 to 126 °C | O=C(COc1ccc2c(c1)OCO2)c1ccccc1 |
| 76 to 78 °C | CCn1nc(C(F)(F)F)c(CS(=O)(=O)C2=NOC(C)(CCl)C2)c1C#N (stereo not drawn) |
| 252 to 253 °C | COc1cc(Cl)c2nc(Cl)nc(O)c2c1OC |
| 234 to 236 °C | COc1cc2ncc(C#N)c(Nc3cc(C)c(O)c(C)c3)c2cc1OC |
| 284 to 285 °C | CS(=O)(=O)c1ccc(-c2coc3ccc(-c4nnc(O)o4)cc23)cc1 |
| 136 to 137 °C | O=C(c1ccccc1)c1ccc(N2CCN(c3ccncc3)CC2)cc1 |
| 63 to 64 °C | CC(=C1SCCCS1)c1cccc(O)c1 |
| 299 to 304 °C | Clc1[nH]ncc1-c1csc(Nc2ccccn2)n1 |
| 174 to 177 °C | CC1=Cc2ccncc2C(C)(NS(=O)(=O)c2ccc(C)cc2)c2ccccc21 (stereo not drawn) |
| 203 °C | Oc1ccc2c(-c3ccc(Cl)cc3)noc2c1 |
| 280 to 284 °C | O=C(Nc1ccc(C(=O)N2CCc3cn[nH]c3-c3sccc32)cc1)c1ccccc1-c1ccccc1 |
| 206 to 208 °C | CC(C)c1cccc(C(C)C)c1NC(=O)Nc1ccc(-c2ccccc2)nc1-c1ccccc1 |
| 74 to 75 °C | Nc1ccccc1C(=O)NCCCCN1CCC(OC(c2ccccc2)c2ccccc2)CC1 |

| melting point | SMILES |
| --- | --- |
| 209 to 211 °C | Cc1nc2c(N)nc3ccccc3c2n1CC(C)(C)CC1(C)OCCO1 |
| 289 to 292 °C | CCCCCNC(=O)n1cc(F)c(N)nc1=O |
| 122 to 125 °C | Cc1ccc(OCCCCCNc2cccc3c2C(=O)c2cccc4[nH]nc-3c24)cc1 |
| 112 to 114 °C | CCCCCCCCCCCCCCCCCC(=O)NCC(O)CO (single isomer, unassigned; (+)) |
| 279 °C | CNC(=O)C1CCN(c2cc(-c3ccc(Cl)cc3)nc3ccc(F)cc23)CC1 |
| 78 to 79 °C | COc1ccc(CC(=O)O)cc1C12CC3CC(CC(C3)C1)C2 |
| 157 to 158 °C | CCOC(=O)c1cc2cccc(NS(C)(=O)=O)c2[nH]1 |
| 41 to 42 °C | CCCCCCCCCCCCCCCCO[C@@H]1CCCO[C@H]1CO (relative stereo) |
| 203 °C | COc1ccc(S(=O)(=O)Nc2nc(-c3cccc([N+](=O)[O-])c3)c(CN(C)C)s2)cc1OC |
| 205 to 207 °C | CC(C)c1ccc2c(c1)OC1(O)c3cccc(O)c3C(=O)C21O (stereo not drawn) |
| 88 to 91 °C | COc1cccc2nc(C(F)(F)F)oc(=O)c12 |
| 247 °C | N#CC1=C(C2CCCC2)Nc2n[nH]cc2C1c1cccc(C#N)c1Br (stereo not drawn) |
| 80 to 82 °C | O=[N+]([O-])c1ccc(Oc2cncc(Cl)c2)cc1 |
| 101 to 104 °C | O[C@@H]1CN(Cc2ccccc2)C[C@H]1Oc1ccc(Cl)cc1 (relative stereo) |
| 208 to 209 °C | CC(O)C1COCc2nc3c(N)nc4ccccc4c3n21 (stereo not drawn) |
| 140 °C | CCOC(=O)N1CCC(=C2c3ccc(Cl)cc3CCn3ccnc32)CC1 |
| 252 to 255 °C | CCNc1c(F)cc2c(=O)c(C(=O)O)cn(-c3cc(N)c(F)cc3F)c2c1Cl |
| 212 to 213 °C | CCOCCOc1ccc(-c2ccc3c(c2)C=C(C(=O)Nc2ccc(CN(C)C4CCOCC4)cc2)CCS3(=O)=O)cc1C |
| 136 to 138 °C | COc1ccc(S(=O)(=O)N2c3cc(Br)sc3-c3ccccc3[C@H]2C)cc1 |
| 227 to 228 °C | CS(=O)(=O)C1C(O)C(CO)OC1n1ccc(=O)[nH]c1=O (stereo not drawn) |

| melting point | SMILES |
| --- | --- |
| 98 to 100 °C | CCOC(=O)c1ncc(Cl)cc1NC(C)=O |
| 85 °C | O=C/C=C/c1ccc2ccccc2n1 |
| 290 to 292 °C | Cc1nc(-c2ccc(-c3cnc4[nH]c(=O)n(CCC5CCOCC5)c4n3)cc2)n[nH]1 |
| 149 to 151 °C | COc1ccc(N2CCN(c3c(C)c(C(C)O)c4c(c3C)C(c3ccc(C)cc3)C(C)(C)O4)CC2)cc1 (stereo not drawn) |
| 89 to 90 °C | O=c1c(Br)cc(Cc2ccccc2)cn1Cc1ccccc1 |
| 119 to 120 °C | COC(=O)Cn1c(=O)c2ccccc2n(CCCCCl)c1=O |
| 107 to 108 °C | CC(C)(C)OC(=O)NCCc1cccc(OCCC2Oc3ccccc3N(Cc3cccc(Cl)c3)C2=O)c1 (stereo not drawn) |
| 267 to 269 °C | O=c1[nH]c(COc2ccc(Cl)cc2)nc2nccnc12 |
| 173 °C | N#Cc1ccc(-c2cc(F)c(F)c(OC3SCC(O)C(O)C3O)c2)cn1 (stereo not drawn) |
| 318 to 319 °C | O=C(O)Cn1c(=O)c(=O)[nH]c2cc(Cl)ccc21 |
| 117 °C | Cc1cc(C)nc(-c2cccc(-c3ccccc3)n2)n1 |
| 193 to 195 °C | CNc1nc(-c2cccc(-c3cccc(-c4ccccc4)c3)c2)c2cc(OC)c(OC)cc2n1 |
| 211 to 213 °C | O=C1NC(=O)C(Cc2ccc(OCc3nc4cccnc4n3Cc3ccc(Cl)cc3)cc2)S1 (stereo not drawn) |
| 48 to 50 °C | C=C(C)Cn1c(=O)c2ccccc2n1C(=O)OCC |
| 139 to 141 °C | Oc1cnc2c(O)cccc2c1 |
| 204 to 205 °C | Fc1ccc(-c2n[nH]cc2-c2ccnc(Cl)n2)cc1 |
| 211 to 214 °C | COC(=O)[C@@H]1C(=O)Nc2ccccc2C[C@H]1c1ccc2c(c1)OCO2 (racemic) |
| 121 to 122 °C | Cc1c(C)c2c(c(C)c1N)C(O)(c1ccc3ccccc3c1)C(C)(C)O2 (stereo not drawn) |
